Laboratory results published in ChEMBL document CHEMBL1201862, “PubChem BioAssay data set” (2004).
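These data come from cells grown in 96-well plates and exposed to compound for 48 hours at five concentrations. At the GI50, growth is halved.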 The source made the active and inactive calls. Cut-off read from the data, not from the text of the source: active = GI50 up to about 1.1 µM and inactive = higher.

How the values were obtained:
Assay in all cases: NCI anticancer screen, dose series, 48 h
A549 = system: A549
LOX IMVI = system: LOX IMVI
SNB-75 = system: SNB-75
SF-268 = system: SF-268
KM12 = system: KM12
K562 = system: K562
OVCAR-8 = system: OVCAR-8
ACHN = system: ACHN
NCI-H522 = system: NCI-H522
MDA-N = system: MDA-N
CAKI-1 = system: CAKI-1
DU-145 = system: DU-145
MDA-MB-231 = system: MDA-MB-231
HOP-92 = system: HOP-92
HCT-15 = system: HCT-15
SK-MEL-28 = system: SK-MEL-28
MDA-MB-435 = system: MDA-MB-435
MOLT-4 = system: MOLT-4
U-251 = system: U-251
NCI-H226 = system: NCI-H226

Measured: GI50

COc1ccc(NC(=O)N(C)CC2(O)CCC(C(C)(C)C)CC2)cc1 (stereo not given)
inactive: A549 90.6 µM | LOX IMVI 25.2 µM | SNB-75 52.6 µM | SF-268 > 100 µM | KM12 42.7 µM | K562 66.2 µM | OVCAR-8 60.8 µM | ACHN > 100 µM | NCI-H522 32.7 µM | MDA-N 55.1 µM | DU-145 > 100 µM | MDA-MB-231 41.8 µM | HOP-92 3.66 µM | SK-MEL-28 > 100 µM | MDA-MB-435 57.1 µM | MOLT-4 52.6 µM | U-251 > 100 µM
active: CAKI-1 < 0.01 µM
61.7 µM: HCT-15

Cc1ccc([C@@H]2[C@@H](C(=O)c3ccccn3)[C@H](c3ccc(C)cc3)C[C@](O)(c3ccccn3)[C@H]2C(=O)c2ccccn2)cc1
inactive: A549 2.77 µM | LOX IMVI 2.84 µM | NCI-H226 4.1 µM | SNB-75 3.33 µM | KM12 7.98 µM | OVCAR-8 3.33 µM | ACHN 2.51 µM | NCI-H522 32.8 µM | MDA-N 3.69 µM | CAKI-1 3.95 µM | DU-145 2.17 µM | MDA-MB-231 > 32 µM | HOP-92 4.61 µM | SK-MEL-28 6.11 µM | MDA-MB-435 8.22 µM | MOLT-4 2.07 µM | U-251 2.77 µM
1.77 µM: HCT-15
active: SF-268 0.946 µM

CCCn1c(=O)c(N2CCN(c3ccccc3)CC2)nc2sc3ccccc3c21
> 100 µM: HCT-15
inactive: A549 > 100 µM | LOX IMVI > 100 µM | SNB-75 > 100 µM | SF-268 > 100 µM | KM12 > 100 µM | OVCAR-8 > 100 µM | ACHN > 100 µM | NCI-H522 > 100 µM | MDA-N > 100 µM | CAKI-1 > 100 µM | DU-145 > 100 µM | MDA-MB-231 > 100 µM | HOP-92 > 100 µM | SK-MEL-28 > 100 µM | MDA-MB-435 > 100 µM | MOLT-4 > 100 µM | U-251 > 100 µM

O=[N+]([O-])c1cc(C(F)(F)F)ccc1S(=O)(=O)N[C@@H]1CCCC[C@H]1NS(=O)(=O)c1ccc(C(F)(F)F)cc1[N+](=O)[O-]
2.69 µM: HCT-15
inactive: A549 4.16 µM | LOX IMVI 1.56 µM | NCI-H226 7.52 µM | SNB-75 1.83 µM | SF-268 2.49 µM | KM12 3.08 µM | OVCAR-8 2.86 µM | ACHN 2.7 µM | NCI-H522 2.45 µM | MDA-N 3.63 µM | CAKI-1 2.65 µM | DU-145 4.22 µM | MDA-MB-231 2.77 µM | HOP-92 1.98 µM | SK-MEL-28 5.55 µM | MDA-MB-435 2.15 µM | U-251 3.37 µM

FC(F)(Sc1ccccc1)c1nc2ccccc2o1
inactive: A549 30.1 µM | NCI-H226 46.9 µM | SF-268 > 100 µM | KM12 57 µM | K562 27 µM | OVCAR-8 83.4 µM | ACHN 47.4 µM | NCI-H522 34.6 µM | MDA-N 82.6 µM | CAKI-1 > 100 µM | DU-145 67.8 µM | MDA-MB-231 > 100 µM | HOP-92 12.5 µM | SK-MEL-28 > 100 µM | MDA-MB-435 95.3 µM | MOLT-4 13.8 µM | U-251 21.9 µM
22 µM: HCT-15

CSC1=N/C(=C\c2ccco2)C(=O)N1CN1CCCCC1
38.4 µM: HCT-15
inactive: A549 > 100 µM | LOX IMVI 33.7 µM | NCI-H226 > 100 µM | SNB-75 > 100 µM | SF-268 92.3 µM | KM12 > 100 µM | K562 59.6 µM | OVCAR-8 75.9 µM | ACHN 69.5 µM | NCI-H522 > 100 µM | MDA-N > 100 µM | DU-145 81.3 µM | MDA-MB-231 > 100 µM | HOP-92 28.4 µM | SK-MEL-28 > 100 µM | MDA-MB-435 > 100 µM | MOLT-4 71.3 µM | U-251 > 100 µM

COC(=O)C/N=C1\NC(=S)N(Cc2ccc(OC)cc2)C12CCCC2
inactive: A549 > 100 µM | NCI-H226 > 100 µM | SNB-75 > 100 µM | SF-268 > 100 µM | KM12 > 100 µM | K562 > 100 µM | OVCAR-8 > 100 µM | ACHN > 100 µM | NCI-H522 > 100 µM | MDA-N > 100 µM | CAKI-1 > 100 µM | DU-145 > 100 µM | MDA-MB-231 > 100 µM | HOP-92 > 100 µM | SK-MEL-28 > 100 µM | MDA-MB-435 > 100 µM | MOLT-4 > 100 µM | U-251 > 100 µM
> 100 µM: HCT-15

CCC(Nc1ncnc2nc[nH]c12)C(=O)O (stereo not given)
inactive: A549 > 100 µM | LOX IMVI > 100 µM | NCI-H226 > 100 µM | SNB-75 26.2 µM | SF-268 > 100 µM | KM12 > 100 µM | K562 > 100 µM | OVCAR-8 > 100 µM | ACHN > 100 µM | NCI-H522 > 100 µM | MDA-N > 100 µM | CAKI-1 > 100 µM | DU-145 > 100 µM | MDA-MB-231 > 100 µM | HOP-92 > 100 µM | SK-MEL-28 > 100 µM | MDA-MB-435 > 100 µM | U-251 > 100 µM
> 100 µM: HCT-15

O=C(/C=C/C=C/c1ccccc1)CCc1ccccc1
94.4 µM: HCT-15
inactive: A549 > 100 µM | LOX IMVI 79.4 µM | NCI-H226 > 100 µM | SNB-75 > 100 µM | SF-268 85.1 µM | KM12 22.1 µM | OVCAR-8 73.8 µM | NCI-H522 50.2 µM | MDA-N > 100 µM | CAKI-1 > 100 µM | DU-145 > 100 µM | MDA-MB-231 > 100 µM | HOP-92 > 100 µM | SK-MEL-28 > 10 µM | MDA-MB-435 72.6 µM | MOLT-4 21 µM | U-251 61 µM

C#CCOC(=O)c1ccccc1OC(C)=O
inactive: LOX IMVI > 100 µM | NCI-H226 > 100 µM | SNB-75 > 100 µM | SF-268 > 100 µM | KM12 > 100 µM | K562 > 100 µM | OVCAR-8 > 100 µM | ACHN > 100 µM | NCI-H522 > 100 µM | MDA-N > 100 µM | CAKI-1 > 100 µM | DU-145 > 100 µM | MDA-MB-231 > 100 µM | HOP-92 > 100 µM | MDA-MB-435 > 100 µM | MOLT-4 > 100 µM | U-251 > 100 µM
> 100 µM: HCT-15

COc1ccccc1Cc1ccc(C2C=CC3(CC(=O)C=C3C)C(=O)C2)o1 (stereo not given)
25.6 µM: HCT-15
inactive: A549 33.9 µM | LOX IMVI 17.3 µM | NCI-H226 25.6 µM | SF-268 20.3 µM | KM12 29 µM | K562 20 µM | OVCAR-8 17.1 µM | ACHN 33 µM | NCI-H522 16 µM | MDA-N 18.5 µM | CAKI-1 29.6 µM | DU-145 29.4 µM | MDA-MB-231 21 µM | HOP-92 20.5 µM | SK-MEL-28 34.4 µM | MDA-MB-435 19.4 µM | MOLT-4 16 µM | U-251 16.3 µM

COc1c2cc([N+](=O)[O-])cc1CN(C(=O)C(F)(F)F)CCOCCN(C(=O)C(F)(F)F)C2
> 100 µM: HCT-15
inactive: A549 > 100 µM | LOX IMVI > 100 µM | NCI-H226 > 100 µM | SNB-75 69.7 µM | SF-268 > 100 µM | KM12 > 100 µM | OVCAR-8 > 100 µM | ACHN > 100 µM | NCI-H522 > 100 µM | MDA-N > 100 µM | CAKI-1 > 100 µM | DU-145 > 100 µM | MDA-MB-231 > 100 µM | HOP-92 > 100 µM | SK-MEL-28 > 100 µM | MDA-MB-435 > 100 µM | MOLT-4 > 100 µM | U-251 > 100 µM

COc1ccc(C2C(C#N)=C(S)N(C3OC(CO)C(O)C(O)C3O)C(c3ccccc3)=C2C(C)=O)cc1 (stereo not given)
inactive: A549 > 100 µM | LOX IMVI 60.1 µM | NCI-H226 > 100 µM | SNB-75 23.6 µM | SF-268 45.7 µM | KM12 > 100 µM | K562 43.6 µM | OVCAR-8 63.7 µM | ACHN 83.9 µM | NCI-H522 26.9 µM | MDA-N 37.2 µM | DU-145 > 100 µM | MDA-MB-231 95.5 µM | HOP-92 46.1 µM | SK-MEL-28 91.8 µM | MDA-MB-435 32.6 µM | MOLT-4 28.1 µM | U-251 53.2 µM
74.6 µM: HCT-15

CNC(=O)c1ccc(C(=O)NCCCCCN(O)C(=O)CCC(=O)NCCCCCN(O)C(=O)CCC(=O)NCCCCCN(O)C(C)=O)c(O)c1O
21.9 µM: HCT-15
inactive: A549 54.7 µM | LOX IMVI 18.3 µM | NCI-H226 > 100 µM | SNB-75 > 100 µM | SF-268 23.1 µM | KM12 58.5 µM | K562 65 µM | OVCAR-8 30.8 µM | ACHN 32.8 µM | NCI-H522 60.1 µM | MDA-N > 100 µM | CAKI-1 55.3 µM | DU-145 55.1 µM | MDA-MB-231 53.7 µM | HOP-92 37.4 µM | SK-MEL-28 42 µM | MDA-MB-435 > 100 µM | U-251 33.9 µM

COc1ccc(N[C@H]([C@@H](c2ccccc2)[S+]([O-])c2ccc(C)cc2)C(F)(F)F)cc1 (stereo not given in full)
inactive: A549 32.7 µM | LOX IMVI 53.1 µM | NCI-H226 48.4 µM | SNB-75 24.8 µM | KM12 33.4 µM | K562 28.4 µM | OVCAR-8 80.9 µM | ACHN 35 µM | NCI-H522 56.5 µM | MDA-N 74.8 µM | CAKI-1 46.7 µM | DU-145 62.8 µM | MDA-MB-231 32.9 µM | HOP-92 34 µM | SK-MEL-28 > 100 µM | MDA-MB-435 41.1 µM | MOLT-4 34.9 µM | U-251 17.9 µM
30 µM: HCT-15
